Measurements published in patent US10514377B2, “Method of diagnosing and therapeutically treating a patient for a traumatic brain injury” (priority 2010, dated 2019).

System: rats subjected to impact acceleration injury
Experiment: Impact acceleration injury (traumatic brain injury) in rats, GFAP immuno-fluorescence of cortex 24 hours after injury
Format: in vivo
Conditions: rat
Source text: FIG. 3 through 5 represent respectively, representative photomicrographs of three groups of ten rats which have been subjected to the development of traumatic brain injury through impact by a weight under experimental conditions described hereinafter.
Low and high magnification micrographs of glial fibrillary acidic proteins (GFAP) immuno-fluorescence using a laser-scanning confocal microscope produced FIGS. 3 through 5. The GFAP antibody labels the intermediate filaments of most astrocytes in the brain. These photomicrographs, which were taken 24 hours after the animals were subjected to impact acceleration injury, show areas of cortex slightly lateral to the midline. The pial surface is at the top of the images and the midline is to the left of all images. In the sham animals shown in FIG. 3, a normal distribution of GFAP labeled astrocytes is seen, including their endfeet which surround the neurovasculature. […] There is also a patchy loss of GFAP-labeled astrocytes throughout the cortex and the vasculature shown by the arrow heads (as contrasted with the full arrows) appears damaged. It should also be noted that many of the remaining astrocytes appear to be hypertrophied. The loss of all GFAP-immunoreactivity and appearance of astrocyte hypertrophy are indicative of a neuroinflammatory response to injury.
In order to provide additional information regarding the invention, experiments were performed on animals who were subjected to the impact acceleration injury described hereinbefore, with the animals subsequently being sacrificed and the brains examined 24 hours after the injury. Tests were performed with body specimens which were urinary excretion and also with blood, either blood plasma or blood serum. In each group of ten animals, all had their urine tested and six had blood tested. With the sham animals, the mean urinary excretion values of marinobufagenin were 423±130 (SE)pgMBG/mg creatinine. With the impact acceleration injury rats, the mean urinary excretion values of marinobufagenin were […]. […] These tests confirm the evaluation of marinobufagenin in both urine and blood when an impact acceleration injury is present.

[1] = 120 μg bolus about 90 minutes after injury, 24 hours after injury, FIG. 5

C[C@]12CC[C@H](O)C[C@H]1CC[C@@H]1[C@@H]2CC[C@]2(C)[C@@H](c3ccc(=O)oc3)C[C@H]3O[C@]132 [resibufogenin]
GFAP immunoreactivity [1]: reduce the decrease in GFAP immunoreactivity
appearance of GFAP labeled astrocytes (normal vs hypertrophied) [1]: a greater proportion of GFAP labeled astrocytes have a normal, rather than a hypertrophied appearance
glial scar in cortex [1]: no observed glial scar
alterations after impact acceleration injury (glial scar, patchy loss of GFAP-labeled astrocytes, damaged vasculature, astrocyte hypertrophy) (120 μg bolus of resibufogenin about 90 minutes after injury, cortex examined 24 hours after injury, FIG. 5 vs FIG. 4): most of these alterations are ameliorated
